Patent US10253081B2, “Glucagon analogues” (Zealand Pharma A/S, priority 2012, dated 2019)
Values joined by “and” are separate entries in the source; they are usually repeats but may differ in a detail not shown here. Identical values can stand only once. *1 amine or outer side, *2 acyl side, *3 side chain or, on linkers, in order; H or OH if unused. Where a SMILES comes first, the peptide text is derived from it. Side-chain parts run from the residue outwards. [ ]: non-standard residue; d: D form. The star is where a group is joined. γGlu = O=C(O)[C@H](CCC(=O)[*:2])N[*:1]; Palmitoyl = CCCCCCCCCCCCCCCC(=O)*; Aib = CC(C)(N)C(=O)O

Legend:
[1] = biological target: T1, endogenous GLP-1 receptors (Mus musculus, UniProt O35659); assay: Agonistic activity on endogenous GLP-1 receptor (cAMP, murine insulinoma cell line); type: cell-based; conditions: intracellular cAMP, 15 minutes at 26° C.; read-out: EC50 GLP-1R (murine insulinoma cells)
T1 construct: Agonistic activity of the test compounds on endogenous GLP-1 receptors; endogenous in cells
T1 sequence (O35659 22-463): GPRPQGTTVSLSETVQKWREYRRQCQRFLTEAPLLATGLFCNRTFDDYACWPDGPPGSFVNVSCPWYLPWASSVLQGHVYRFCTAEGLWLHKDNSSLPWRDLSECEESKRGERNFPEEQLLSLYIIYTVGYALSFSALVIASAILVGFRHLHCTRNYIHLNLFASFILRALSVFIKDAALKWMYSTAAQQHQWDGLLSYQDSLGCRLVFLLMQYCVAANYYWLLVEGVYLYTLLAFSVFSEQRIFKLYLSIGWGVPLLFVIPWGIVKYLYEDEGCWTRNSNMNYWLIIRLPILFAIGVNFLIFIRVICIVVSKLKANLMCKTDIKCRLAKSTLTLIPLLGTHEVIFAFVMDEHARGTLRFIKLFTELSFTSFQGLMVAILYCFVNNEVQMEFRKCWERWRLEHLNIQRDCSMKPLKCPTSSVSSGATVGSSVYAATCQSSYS
Outline: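 Murine insulinoma cells were exposed 15 min at 26° C in KRBH with 0.1% DMSO to compound or GLP-1 ([…]), then cAMP was measured by AlphaScreen against a standard curve, in quadruplicate. pEC50 came from curve fits; % CTL was normalised to the maximal GLP-1 cAMP response.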

[2] = biological target: T2, endogenous glucagon receptor (Rattus norvegicus, UniProt P30082); assay: Agonistic activity on endogenous glucagon receptor (glycogen synthesis rate in primary rat hepatocytes); type: cell-based; conditions: inhibition of glycogen synthesis rate, 3 hours, read-out: EC50 GLP-1R Rat hepat.
T2 construct: Agonistic activity of the test compounds on endogenous glucagon receptor; endogenous in cells; host or cells: primary rat hepatocytes
T2 sequence (P30082 27-485): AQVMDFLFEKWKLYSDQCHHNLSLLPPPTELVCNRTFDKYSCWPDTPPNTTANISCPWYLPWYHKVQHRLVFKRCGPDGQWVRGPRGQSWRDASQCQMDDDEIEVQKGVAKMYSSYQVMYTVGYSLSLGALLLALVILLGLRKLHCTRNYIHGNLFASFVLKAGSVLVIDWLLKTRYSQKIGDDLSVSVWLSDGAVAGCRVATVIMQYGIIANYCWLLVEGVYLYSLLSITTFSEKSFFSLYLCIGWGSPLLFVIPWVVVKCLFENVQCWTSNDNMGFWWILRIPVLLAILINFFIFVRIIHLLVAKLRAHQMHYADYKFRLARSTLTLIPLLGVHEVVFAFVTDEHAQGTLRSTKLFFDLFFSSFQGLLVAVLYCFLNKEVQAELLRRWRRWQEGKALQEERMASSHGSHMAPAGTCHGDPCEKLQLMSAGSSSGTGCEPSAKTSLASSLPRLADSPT
Outline: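 Primary rat hepatocytes (40,000 cells/well, cultured 24 h) incubated 3 h with compound in KRBH buffer with 0.1% BSA, 22.5 mM glucose and D-[U14C]glucose. 14C incorporated into precipitated glycogen counted, background-subtracted and expressed as % of 0.1% DMSO vehicle (100% CTL). pEC50 from cpm versus log concentration; agonism lowers glycogen synthesis.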

Compound	EC50 [1] [nM]	EC50 [2]
CCCCCCCCCCCCCCCC(=O)N[C@@H](CCC(=O)NCCCC[C@H](NC(=O)[C@H](CO)NC(=O)[C@H](CC(=O)O)NC(=O)[C@H](CC(C)C)NC(=O)[C@H](Cc1ccc(O)cc1)NC(=O)[C@H](CCCCN)NC(=O)[C@H](CO)NC(=O)[C@H](Cc1ccc(O)cc1)NC(=O)[C@H](CC(=O)O)NC(=O)[C@H](CO)NC(=O)[C@@H](NC(=O)[C@H](Cc1ccccc1)NC(=O)[C@@H](NC(=O)CNC(=O)[C@H](CCC(N)=O)NC(=O)C(C)(C)NC(=O)[C@@H](N)Cc1c[nH]cn1)[C@@H](C)O)[C@@H](C)O)C(=O)N[C@@H](C)C(=O)N[C@@H](C)C(=O)N[C@@H](Cc1c[nH]cn1)C(=O)N[C@@H](CC(=O)O)C(=O)N[C@@H](Cc1ccccc1)C(=O)N[C@H](C(=O)N[C@@H](CCC(=O)O)C(=O)N[C@@H](Cc1c[nH]c2ccccc12)C(=O)N[C@@H](CC(C)C)C(=O)N[C@@H](CC(C)C)C(=O)N[C@@H](CO)C(=O)N[C@@H](C)C(=O)O)C(C)C)C(=O)O [Compound 13, H-H-Aib-QGTFTSDYSKYLDS-K(Hexadecanoyl-isoGlu)-AAHDFVEWLLSA-OH]	1.06	0.67 nM
CCCCCCCCCCCCCCCC(=O)N[C@@H](CCC(=O)NCCCC[C@H](NC(=O)[C@H](CO)NC(=O)[C@H](CC(=O)O)NC(=O)[C@H](CC(C)C)NC(=O)[C@H](Cc1ccc(O)cc1)NC(=O)[C@H](CCCCN)NC(=O)[C@H](CO)NC(=O)[C@H](Cc1ccc(O)cc1)NC(=O)[C@H](CC(=O)O)NC(=O)[C@H](CO)NC(=O)[C@@H](NC(=O)[C@H](Cc1ccccc1)NC(=O)[C@@H](NC(=O)CNC(=O)[C@H](CCC(N)=O)NC(=O)C(C)(C)NC(=O)[C@@H](N)Cc1c[nH]cn1)[C@@H](C)O)[C@@H](C)O)C(=O)N[C@@H](C)C(=O)N[C@@H](C)C(=O)N[C@@H](CCC(=O)O)C(=O)N[C@@H](CC(=O)O)C(=O)N[C@@H](Cc1ccccc1)C(=O)N[C@H](C(=O)N[C@@H](CCC(=O)O)C(=O)N[C@@H](Cc1c[nH]c2ccccc12)C(=O)N[C@@H](CC(C)C)C(=O)N[C@@H](CCC(=O)O)C(=O)N[C@@H](CO)C(=O)N[C@@H](C)C(N)=O)C(C)C)C(=O)O [Compound 16, H-H-Aib-QGTFTSDYSKYLDS-K(Hexadecanoyl-isoGlu)-AAEDFVEWLESA-NH2] (H-H[Aib]QGTFTSDYSKYLDSK([γGlu-Palmitoyl])AAEDFVEWLESA-NH2)	0.33	1.85 nM
CCCCCCCCCCCCCCCC(=O)N[C@@H](CCC(=O)NCCCC[C@H](NC(=O)[C@H](CCC(=O)O)NC(=O)[C@H](CC(=O)O)NC(=O)[C@H](CC(C)C)NC(=O)[C@H](Cc1ccc(O)cc1)NC(=O)[C@H](CCCCN)NC(=O)[C@H](CO)NC(=O)[C@H](Cc1ccc(O)cc1)NC(=O)[C@H](CC(=O)O)NC(=O)[C@H](CO)NC(=O)[C@@H](NC(=O)[C@H](Cc1ccccc1)NC(=O)[C@@H](NC(=O)CNC(=O)[C@H](CCC(N)=O)NC(=O)C(C)(C)NC(=O)[C@@H](N)Cc1c[nH]cn1)[C@@H](C)O)[C@@H](C)O)C(=O)N[C@@H](C)C(=O)N[C@@H](C)C(=O)N[C@@H](CCCCN)C(=O)N[C@@H](CC(=O)O)C(=O)N[C@@H](Cc1ccccc1)C(=O)N[C@H](C(=O)N[C@@H](CCC(=O)O)C(=O)N[C@@H](Cc1c[nH]c2ccccc12)C(=O)N[C@@H](CC(C)C)C(=O)N[C@@H](CCC(=O)O)C(=O)N[C@@H](CO)C(=O)N[C@@H](C)C(N)=O)[C@@H](C)CC)C(=O)O [Compound 15, H-H-Aib-QGTFTSDYSKYLDE-K(Hexadecanoyl-isoGlu)-AAKDFIEWLESA-NH2]	0.3	0.17 nM
CCCCCCCCCCCCCCCC(=O)N[C@@H](CCC(=O)NCCCC[C@H](NC(=O)[C@H](CO)NC(=O)[C@H](CC(=O)O)NC(=O)[C@H](CC(C)C)NC(=O)[C@H](Cc1ccc(O)cc1)NC(=O)[C@H](CCCCN)NC(=O)[C@H](CO)NC(=O)[C@H](Cc1ccc(O)cc1)NC(=O)[C@H](CC(=O)O)NC(=O)[C@H](CO)NC(=O)[C@@H](NC(=O)[C@H](Cc1ccccc1)NC(=O)[C@@H](NC(=O)CNC(=O)[C@H](CCC(N)=O)NC(=O)C(C)(C)NC(=O)[C@@H](N)Cc1c[nH]cn1)[C@@H](C)O)[C@@H](C)O)C(=O)N[C@@H](C)C(=O)N[C@@H](C)C(=O)N[C@@H](Cc1c[nH]cn1)C(=O)N[C@@H](CC(=O)O)C(=O)N[C@@H](Cc1ccccc1)C(=O)N[C@H](C(=O)N[C@@H](CCC(=O)O)C(=O)N[C@@H](Cc1c[nH]c2ccccc12)C(=O)N[C@@H](CC(C)C)C(=O)N[C@@H](CCC(=O)O)C(=O)N[C@@H](CO)C(=O)N[C@@H](C)C(N)=O)C(C)C)C(=O)O [Compound 5, H-H-Aib-QGTFTSDYSKYLDS-K(Hexadecanoyl-isoGlu)-AAHDFVEWLESA-NH2] (H-H[Aib]QGTFTSDYSKYLDSK([γGlu-Palmitoyl])AAHDFVEWLESA-NH2)	0.54	0.03 nM
CCCCCCCCCCCCCCCC(=O)N[C@@H](CCC(=O)NCCCC[C@H](NC(=O)[C@H](CCC(=O)O)NC(=O)[C@H](CC(=O)O)NC(=O)[C@H](CC(C)C)NC(=O)[C@H](Cc1ccc(O)cc1)NC(=O)[C@H](CCCCN)NC(=O)[C@H](CO)NC(=O)[C@H](Cc1ccc(O)cc1)NC(=O)[C@H](CC(=O)O)NC(=O)[C@H](CO)NC(=O)[C@@H](NC(=O)[C@H](Cc1ccccc1)NC(=O)[C@@H](NC(=O)CNC(=O)[C@H](CCC(N)=O)NC(=O)[C@H](CO)NC(=O)[C@@H](N)Cc1c[nH]cn1)[C@@H](C)O)[C@@H](C)O)C(=O)N[C@@H](C)C(=O)N[C@@H](C)C(=O)N[C@@H](Cc1c[nH]cn1)C(=O)N[C@@H](CCC(=O)O)C(=O)N[C@@H](Cc1ccccc1)C(=O)N[C@H](C(=O)N[C@@H](CCC(=O)O)C(=O)N[C@@H](Cc1c[nH]c2ccccc12)C(=O)N[C@@H](CC(C)C)C(=O)N[C@@H](CCC(=O)O)C(=O)N[C@@H](CO)C(=O)N[C@@H](C)C(N)=O)C(C)C)C(=O)O [Compound 10, H-HSQGTFTSDYSKYLDE-K(Hexadecanoyl-isoGlu)-AAHEFVEWLESA-NH2] (H-HSQGTFTSDYSKYLDEK([γGlu-Palmitoyl])AAHEFVEWLESA-NH2)	0.33	0.04 nM
CCCCCCCCCCCCCCCC(=O)N[C@@H](CCC(=O)NCCCC[C@H](NC(=O)[C@H](CO)NC(=O)[C@H](CC(=O)O)NC(=O)[C@H](CC(C)C)NC(=O)[C@H](Cc1ccc(O)cc1)NC(=O)[C@H](CCCCN)NC(=O)[C@H](CO)NC(=O)[C@H](Cc1ccc(O)cc1)NC(=O)[C@H](CC(=O)O)NC(=O)[C@H](CO)NC(=O)[C@@H](NC(=O)[C@H](Cc1ccccc1)NC(=O)[C@@H](NC(=O)CNC(=O)[C@H](CCC(N)=O)NC(=O)[C@H](CO)NC(=O)[C@@H](N)Cc1c[nH]cn1)[C@@H](C)O)[C@@H](C)O)C(=O)N[C@@H](C)C(=O)N[C@@H](C)C(=O)N[C@@H](Cc1c[nH]cn1)C(=O)N[C@@H](CC(=O)O)C(=O)N[C@@H](Cc1ccccc1)C(=O)N[C@H](C(=O)N[C@@H](CCC(=O)O)C(=O)N[C@@H](Cc1c[nH]c2ccccc12)C(=O)N[C@@H](CC(C)C)C(=O)N[C@@H](CC(C)C)C(=O)N[C@@H](CO)C(N)=O)C(C)C)C(=O)O [Compound 8, H-HSQGTFTSDYSKYLDS-K(Hexadecanoyl-isoGlu)-AAHDFVEWLLS-NH2] (H-HSQGTFTSDYSKYLDSK([γGlu-Palmitoyl])AAHDFVEWLLS-NH2)	0.95	1.1 nM
CCCCCCCCCCCCCCCC(=O)N[C@@H](CCC(=O)NCCCC[C@H](NC(=O)[C@H](CO)NC(=O)[C@H](CC(=O)O)NC(=O)[C@H](CC(C)C)NC(=O)[C@H](Cc1ccc(O)cc1)NC(=O)[C@H](CCCCN)NC(=O)[C@H](CO)NC(=O)[C@H](Cc1ccc(O)cc1)NC(=O)[C@H](CC(=O)O)NC(=O)[C@H](CO)NC(=O)[C@@H](NC(=O)[C@H](Cc1ccccc1)NC(=O)[C@@H](NC(=O)CNC(=O)[C@H](CCC(N)=O)NC(=O)C(C)(C)NC(=O)[C@@H](N)Cc1c[nH]cn1)[C@@H](C)O)[C@@H](C)O)C(=O)N[C@@H](C)C(=O)N[C@@H](C)C(=O)N[C@@H](Cc1c[nH]cn1)C(=O)N[C@@H](CC(=O)O)C(=O)N[C@@H](Cc1ccccc1)C(=O)N[C@H](C(=O)N[C@@H](CCC(=O)O)C(=O)N[C@@H](Cc1c[nH]c2ccccc12)C(=O)N[C@@H](CC(C)C)C(=O)N[C@@H](CC(C)C)C(=O)N[C@@H](CO)C(=O)O)C(C)C)C(=O)O [Compound 1, H-H-Aib-QGTFTSDYSKYLDS-K(Hexadecanoyl-isoGlu)-AAHDFVEWLLS-OH] (H-H[Aib]QGTFTSDYSKYLDSK([γGlu-Palmitoyl])AAHDFVEWLLS-OH)	1.47	0.13 nM and 0.02 nM
